According to ChEMBL document CHEMBL5032521, “Design, synthesis and anti-tumor evaluation of 1,2,4-triazol-3-one derivatives and pyridazinone derivatives as novel CXCR2 antagonists” (Eur J Med Chem, 2021):
One block for each molecule: values may come before it. Active and inactive are the calls of the source. The calls are words filed in the database; no cut-off is given here.

Experiments:
[1] = target: T1, C-X-C chemokine receptor type 2 (Homo sapiens) (UniProt P25025); assay: Antagonist activity at CXCR2 (unknown origin) at 10 uM by calcium flux assay relative to control; format: functional
T1 sequence (whole entry): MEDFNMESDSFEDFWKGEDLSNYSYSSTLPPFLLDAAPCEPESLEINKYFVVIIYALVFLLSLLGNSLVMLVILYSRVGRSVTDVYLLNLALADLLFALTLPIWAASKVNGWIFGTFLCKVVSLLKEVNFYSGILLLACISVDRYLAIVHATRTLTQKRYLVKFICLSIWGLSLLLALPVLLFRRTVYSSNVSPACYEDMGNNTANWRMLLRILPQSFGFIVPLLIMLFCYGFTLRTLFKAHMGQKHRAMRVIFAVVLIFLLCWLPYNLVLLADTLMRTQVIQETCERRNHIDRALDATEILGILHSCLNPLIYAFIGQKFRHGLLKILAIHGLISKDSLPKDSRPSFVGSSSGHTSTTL

MDA-MB-231 [2] = assay: Antiproliferative activity against human MDA-MB-231 cells assessed as reduction in cell viability measured after 72 hrs by MTT assay; format: functional, cell-based; conditions: MDA-MB-231, 72 h
MDA-MB-231 [3] = assay: Antimigratory activity against human MDA-MB-231 cells assessed as reduction in cell migration at 2 uM measured after 24 hrs by wound healing assay relative to control; format: functional; parameters: scale not given: the % may be the effect or the level left
HUVEC [4] = assay: Down-regulation of VEGF expression in HUVEC cells assessed as 10 uM measured after 24 hrs by Western blot assay; format: functional, cell-based; conditions: Homo sapiens
MDA-MB-231 [5] = assay: Inhibition of epithelial-mesenchymal transition in human MDA-MB-231 cells assessed as downregulation of beta-catenin expression at 10 uM measured after 24 hrs by Western blot assay; format: functional, cell-based
HUVEC [6] = assay: Anti-angiogenesis activity in HUVEC cells assessed as reduction in blood vessel area at 2 uM measured after 12 hrs by inverted microscopic analysis relative to control; format: functional, Homo sapiens; parameters: scale not given: the % may be the effect or the level left
MDA-MB-231 [7] = assay: Inhibition of epithelial-mesenchymal transition in human MDA-MB-231 cells assessed as upregulation of E-cadherin expression at 10 uM measured after 24 hrs by Western blot assay; format: functional, cell-based
MDA-MB-231 [8] = assay: Inhibition of epithelial-mesenchymal transition in human MDA-MB-231 cells assessed as downregulation of fibronectin expression at 10 uM measured after 24 hrs by Western blot assay; format: functional, cell-based
MDA-MB-231 [9] = assay: Induction of ROS production in human MDA-MB-231 cells assessed as increase in mean fluorescence intensity at 10 uM measured after 24 hrs by DCFH-DA staining based inverted microscopic analysis; format: functional, cell-based
MDA-MB-231 [10] = assay: Inhibition of epithelial-mesenchymal transition in human MDA-MB-231 cells assessed as downregulation of vimentin expression at 10 uM measured after 24 hrs by Western blot assay; format: functional, cell-based
MDA-MB-231 [11] = assay: Antimigratory activity against human MDA-MB-231 cells assessed as reduction in cell migration at 2 uM measured after 24 hrs by crystal violet staining based transwell assay relative to control; format: functional; parameters: scale not given: the % may be the effect or the level left
MDA-MB-231 [12] = assay: Inhibition of PI3K signalling in human MDA-MB-231 cells assessed as decrease in AKT phosphorylation at 5 to 10 uM measured after 24 hrs by Western blot assay; format: cell-based; conditions: dose 5-10 µM
MDA-MB-231 [13] = assay: Synergistic antiproliferative activity against human MDA-MB-231 cells assessed as inhibition of cell growth at 25 uM incubated for 72 hrs in presence of Sorafenib by MTT assay; format: functional, cell-based; conditions: MDA-MB-231, 72 h
MDA-MB-231 [14] = assay: Inhibition of PI3K signalling in human MDA-MB-231 cells assessed as decrease in PI3K phosphorylation at 5 to 10 uM measured after 24 hrs by Western blot assay; format: cell-based; conditions: dose 5-10 µM
MDA-MB-231 [15] = assay: Synergistic antiproliferative activity against human MDA-MB-231 cells assessed as inhibition of cell growth at 10 uM incubated for 72 hrs in presence of Sorafenib by MTT assay; format: functional, cell-based; conditions: MDA-MB-231, 72 h
Caco-2 = assay: Cytotoxicity against human Caco2 cells; format: functional, cell-based

SMILES: O=C(Nc1ccc([N+](=O)[O-])cc1O)Nc1ccccc1Br
- Activity (MDA-MB-231 [3]): 52.3%
- Activity (HUVEC [4]): inactive
- inhibition (MDA-MB-231 [5]): Active
- Activity (HUVEC [6]): 55.2%
- inhibition (MDA-MB-231 [7]): Active
- inhibition (MDA-MB-231 [8]): Active
- Activity (MDA-MB-231 [9]): Active
- inhibition (MDA-MB-231 [10]): Active
- Activity (MDA-MB-231 [11]): 44%

SMILES: Cc1ccc(-n2nc(C(=O)Nc3cccc(C(=O)N(C)C)c3O)n(C)c2=O)cc1
- inhibition [1]: 24.3%

SMILES: Cc1cc(=O)n(-c2ccccc2)nc1C(=O)Nc1cccc(C(=O)N(C)C)c1O
- inhibition [1]: 3.2%

SMILES: Cc1ccccc1-n1nc(C(=O)Nc2cccc(C(=O)N(C)C)c2O)n(C)c1=O
- inhibition ([1]; filed as antagonist): 43.8%

SMILES: Cc1cccc(-n2nc(C(=O)Nc3cccc(C(=O)N(C)C)c3O)c(C)cc2=O)c1
- inhibition [1]: 11.2%

SMILES: Cc1ccc(-n2nc(C(=O)Nc3cccc(C(=O)N(C)C)c3O)c(C)cc2=O)cc1
- inhibition [1]: 26.9%

SMILES: CC[C@@H](Nc1c(Nc2cccc(C(=O)N(C)C)c2O)c(=O)c1=O)c1ccc(C)o1 [NAVARIXIN ANHYDROUS]
- IC50 (Caco-2): 18.8 µM

SMILES: Cc1cc(=O)n(-c2ccc(C(C)(C)C)cc2)nc1C(=O)Nc1cccc(C(=O)N(C)C)c1O
- inhibition [1]: 20.4%

SMILES: Cc1ccccc1-n1nc(C(=O)Nc2cccc(C(=O)N(C)C)c2O)c(C)cc1=O
- inhibition [1]: 6.1%

SMILES: Cc1cccc(-n2nc(C(=O)Nc3cccc(C(=O)N(C)C)c3O)n(C)c2=O)c1
- inhibition ([1]; filed as antagonist): 43.8%

SMILES: CN(C)C(=O)c1cccc(NC(=O)c2nn(-c3ccccc3)c(=O)n2C)c1O
- inhibition [1]: 18.6%

SMILES: CN(C)C(=O)c1cccc(NC(=O)c2nn(-c3ccc(C(C)(C)C)cc3)c(=O)n2C)c1O
- inhibition ([1]; filed as antagonist): 40.9%

Further lines, with some results ahead:

- inhibition [1]: 12.7%
SMILES: CN(C)C(=O)c1cccc(NC(=O)c2nn(-c3ccc(F)cc3)c(=O)n2C)c1O

- inhibition [1]: 27.2%
SMILES: CN(C)C(=O)c1cccc(NC(=O)c2nn(-c3ccc(Cl)cc3)c(=O)n2C)c1O

- IC50 (MDA-MB-231 [2]): 8.52 µM
SMILES: CNC(=O)c1cc(Oc2ccc(NC(=O)Nc3ccc(Cl)c(C(F)(F)F)c3)cc2)ccn1 [SORAFENIB]

- inhibition [1]: -8.2%
SMILES: Cc1cc(=O)n(-c2ccc(Cl)cc2Cl)nc1C(=O)Nc1cccc(C(=O)N(C)C)c1O

- IC50 (MDA-MB-231 [13]): 2.96 µM
- inhibition ([1]; filed as antagonist): 69.4%
- IC50 (MDA-MB-231 [2]): > 25 µM
- IC50 (MDA-MB-231 [15]): 5.93 µM
SMILES: Cc1cc(=O)n(-c2ccc(C(F)(F)F)cc2)nc1C(=O)Nc1cccc(C(=O)N(C)C)c1O
- Activity (MDA-MB-231 [3]): 52%
- Activity (HUVEC [4]): Active
- inhibition (MDA-MB-231 [5]): Active
- Activity (HUVEC [6]): 59.2%
- inhibition (MDA-MB-231 [12]): Active
- inhibition (MDA-MB-231 [7]): Active
- inhibition (MDA-MB-231 [8]): Active
- Activity (MDA-MB-231 [9]): Active
- inhibition (MDA-MB-231 [10]): Active
- inhibition (MDA-MB-231 [14]): Active
- Activity (MDA-MB-231 [11]): 49.7%

- inhibition [1]: 1.5%
SMILES: C#Cc1ccc(-n2nc(C(=O)Nc3cccc(C(=O)N(C)C)c3O)c(C)cc2=O)cc1

- inhibition [1]: -0.8%
SMILES: Cc1cc(=O)n(-c2ccc(F)cc2)nc1C(=O)Nc1cccc(C(=O)N(C)C)c1O

- inhibition ([1]; filed as antagonist): 49.2%
SMILES: C#Cc1ccc(-n2nc(C(=O)Nc3cccc(C(=O)N(C)C)c3O)n(C)c2=O)cc1

- inhibition [1]: 26.6%
SMILES: CN(C)C(=O)c1cccc(NC(=O)c2nn(-c3ccc(Cl)cc3Cl)c(=O)n2C)c1O

- inhibition [1]: 32.3%
SMILES: CN(C)C(=O)c1cccc(NC(=O)c2nn(-c3ccc(Cl)c(Cl)c3)c(=O)n2C)c1O

- inhibition [1]: 21.6%
SMILES: CN(C)C(=O)c1cccc(NC(=O)c2nn(-c3ccc(C(F)(F)F)cc3)c(=O)n2C)c1O

- inhibition [1]: 10.9%
SMILES: Cc1cc(=O)n(-c2ccc(Cl)c(Cl)c2)nc1C(=O)Nc1cccc(C(=O)N(C)C)c1O

- inhibition [1]: 34.6%
SMILES: COc1ccc(-n2nc(C(=O)Nc3cccc(C(=O)N(C)C)c3O)c(C)cc2=O)cc1
